Laboratory results from patent US11866430B2, “Naphthyridinone compounds useful as T cell activators” (priority 2018, dated 2024).
Where two headings read alike, the source gives them in different places.

How the values were obtained:
naïve human CD8 T cells [1] = assay: CellTiter-Glo CD8 T Cell Proliferation Assay; assay type: cell-based; settings: CellTiter-Glo CD8 T cell proliferation, normalized, read-out: CD8 GLO normalized EC50
Procedure: Frozen naïve human CD8 T cells were thawed in RPMI+10% FBS, incubated for 2 h in 37° C., and counted. The 384-well tissue culture plate was coated overnight at 4° C. with 20 μl anti-human CD3 at 0.1 μg/mL in plain RPMI, which was removed off the plate before 20 k/40 μl CD8 T cells with 0.5 μg/mL soluble anti-human CD28 were added to each well. The compounds were echoed to the cell plate immediately after the cells were plated. After 72 h incubation at 37° C. incubator, 10 μl CellTiter-glo reagent (Promega catalog number G7570) was added to each well. The plate was vigorously shaken for 5 mins, incubated at room temperature for another 15 mins and read on Envision for CD8 T cell proliferation. In analysis, 0.1 μg/mL anti-CD3 and 0.5 μg/mL anti-CD28 stimulated CD8 T cell signal was background.

human DGKα = human DGKα (Homo sapiens (Human), UniProt P23743); assay: biochemical; settings: detergent/lipid micelle substrate; read-out: DGKα IC50
Method in brief: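 Enzymes were baculovirus/Sf9 full-length human DGKα or DGKζ with His tag. The substrate was PS/DAG in octyl glucoside micelles, in MOPS pH 7.5 buffer with NaCl, MgCl2, CaCl2 and DTT.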

naïve human CD8 T cells [2] = assay: cells; settings: Homo sapiens, T-cell, read-out: HuCD8 INFG Normalized EC50, anti-CD3 plus anti-CD28 as baseline; 3 μM Example 40 co-stimulation as 100% activation
Method in brief: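 Thawed frozen cells, 40,000/well, stimulated on plate-bound anti-CD3 (coated at 0.05 μg/mL) plus soluble anti-CD28 0.1 μg/mL; compounds added immediately after plating. After 20 h at 37° C., supernatant IFN-γ quantitated by AlphaLISA, counts converted to IFN-γ concentration […].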

[3] = test system: pre-activated CD4 T cells and Raji cells; assay: Raji CD4 T Cell IL2 Assay; assay type: cell-based

human DGKα, sequence (P23743 other isoform, or with tags, fused parts or gaps): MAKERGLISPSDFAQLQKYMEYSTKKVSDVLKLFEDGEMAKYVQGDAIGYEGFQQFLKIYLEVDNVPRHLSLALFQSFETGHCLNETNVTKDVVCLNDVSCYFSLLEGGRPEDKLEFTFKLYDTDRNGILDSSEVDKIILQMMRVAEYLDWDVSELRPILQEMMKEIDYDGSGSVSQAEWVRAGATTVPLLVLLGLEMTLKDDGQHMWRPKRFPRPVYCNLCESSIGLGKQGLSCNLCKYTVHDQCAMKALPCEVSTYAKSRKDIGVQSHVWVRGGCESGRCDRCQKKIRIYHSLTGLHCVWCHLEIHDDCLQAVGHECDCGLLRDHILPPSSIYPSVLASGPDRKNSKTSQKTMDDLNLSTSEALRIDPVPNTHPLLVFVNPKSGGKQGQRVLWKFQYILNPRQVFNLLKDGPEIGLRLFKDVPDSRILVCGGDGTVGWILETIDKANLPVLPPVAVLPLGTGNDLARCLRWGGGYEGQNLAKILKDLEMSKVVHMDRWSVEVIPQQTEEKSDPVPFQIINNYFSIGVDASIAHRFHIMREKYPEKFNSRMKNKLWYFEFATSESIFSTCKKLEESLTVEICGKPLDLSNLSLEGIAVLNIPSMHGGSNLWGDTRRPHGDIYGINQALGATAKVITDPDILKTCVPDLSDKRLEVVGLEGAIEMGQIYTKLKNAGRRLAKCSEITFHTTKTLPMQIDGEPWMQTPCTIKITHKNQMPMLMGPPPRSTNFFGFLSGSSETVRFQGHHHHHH

Compound	IC50 (human DGKα) [nM]	EC50 (naïve human CD8 T cells [2]) [nM]	EC50 (naïve human CD8 T cells [1]) [nM]	also measured
COc1ccc2c(n1)c(N1CCN(C(c3ccc(F)cc3)c3ccc(F)cc3OC)CC1)c(C#N)c(=O)n2C (racemic) [Example 412, 4-{4-[(4-fluoro-2-methoxyphenyl)(4-fluorophenyl)methyl]piperazin-1-yl}-6-methoxy-1-methyl-2-oxo-1,2-dihydro-1,5-naphthyridine-3-carbonitrile]				EC50 (naïve human CD8 T cells [1]; Homo sapiens, T-cell): 300 nM
COc1ccccc1C(c1ccc(F)cc1)N1CCN(c2c(C#N)c(=O)n(C)c3ccc(Br)nc23)CC1 (single isomer, unassigned) [Example 13, 6-bromo-4-{4-[(4-fluorophenyl)(2-methoxyphenyl)methyl]piperazin-1-yl}-1-methyl-2-oxo-1,2-dihydro-1,5-naphthyridine-3-carbonitrile]	9500	10000		IC50 [3]: > 100000 nM
CC(c1ccc(F)cc1)N1CCN(c2c([N+](=O)[O-])c(=O)n(C)c3ccc(C#N)nc23)CC1 (single isomer, unassigned) [Example 44, 8-(4-(1-(4-fluorophenyl)ethyl)piperazin-1-yl)-5-methyl-7-nitro-6-oxo-5,6-dihydro-1,5-naphthyridine-2-carbonitrile]	230	180		
C#CCn1c(=O)c([N+](=O)[O-])c(N2CCN(C(C)c3ccc(F)cc3)CC2)c2nc(C#N)ccc21 (single isomer, unassigned) [Example 137, 8-(4-(1-(4-fluorophenyl)ethyl)piperazin-1-yl)-7-nitro-6-oxo-5-(prop-2-yn-1-yl)-5,6-dihydro-1,5-naphthyridine-2-carbonitrile]	280	40		
Cn1c(=O)c(C#N)c(N2CCN(C(CC(C)(C)C)c3ccc(F)cc3)CC2)c2nc(Cl)ccc21 (single isomer, unassigned) [Example 377, 6-chloro-4-{4-[1-(4-fluorophenyl)-3,3-dimethylbutyl]piperazin-1-yl}-1-methyl-2-oxo-1,2-dihydro-1,5-naphthyridine-3-carbonitrile]			10000	
Cn1c(=O)c(C#N)c(N2CCN(C(CC(C)(C)C)c3ccc(F)cc3)CC2)c2nc(Cl)ccc21 (single isomer, unassigned) [Example 378, 6-chloro-4-{4-[1-(4-fluorophenyl)-3,3-dimethylbutyl]piperazin-1-yl}-1-methyl-2-oxo-1,2-dihydro-1,5-naphthyridine-3-carbonitrile]			1740	
Cn1c(=O)c(C#N)c(N2CCN(C(c3ccc(F)cc3)C3CCC3)CC2)c2nc(Cl)ccc21 (single isomer, unassigned) [Example 382, 6-chloro-4-{4-[cyclobutyl(4-fluorophenyl)methyl]piperazin-1-yl}-1-methyl-2-oxo-1,2-dihydro-1,5-naphthyridine-3-carbonitrile]			1790	
Cn1c(=O)c(C#N)c(N2CCN(C(c3ccc(F)cc3)C3CCC3)CC2)c2nc(Cl)ccc21 (single isomer, unassigned) [Example 383, 6-chloro-4-{4-[cyclobutyl(4-fluorophenyl)methyl]piperazin-1-yl}-1-methyl-2-oxo-1,2-dihydro-1,5-naphthyridine-3-carbonitrile]			60	
CC(c1ccc(F)cc1)N1CCN(c2c(C#N)c(=O)n(C)c3ccc(Cl)nc23)CC1 (single isomer, unassigned) [Example 387, 6-chloro-4-{4-[1-(4-fluorophenyl)ethyl]piperazin-1-yl}-1-methyl-2-oxo-1,2-dihydro-1,5-naphthyridine-3-carbonitrile]			180	
Cc1ccc(CN2CCN(c3c(C#N)c(=O)n(C)c4ccc(Cl)nc34)CC2)cc1 [Example 386, 6-chloro-1-methyl-4-{4-[(4-methylphenyl)methyl]piperazin-1-yl}-2-oxo-1,2-dihydro-1,5-naphthyridine-3-carbonitrile]	150	960		
Cc1ccc(CN2CCN(c3c(C#N)c(=O)n(C)c4ccc(Cl)nc34)CC2)c(F)c1 [Example 423, 6-chloro-4-{4-[(2-fluoro-4-methylphenyl)methyl]piperazin-1-yl}-1-methyl-2-oxo-1,2-dihydro-1,5-naphthyridine-3-carbonitrile]	1400	460		IC50 ([3]; Homo sapiens, Raji): > 100000 nM
